Values quoted from earlier work as cited in patent US20030099599A1, “Antibiotic spray” (priority 2001, published 2003).

System: group A streptococcal tonsillopharyngitis
Conditions: recurrence within 2 months

In the case of penicillin, the “GAS tonsillopharyngitis treated with penicillin that recurs” value is given as “About 25%”.
